From paper PMC6952197, “Harvesting of Prebiotic Fructooligosaccharides by Nonbeneficial Human Gut Bacteria” (mSphere, 2020)

T1: Dorea PTS_EIIBCA (I9 PTS_EIIBCA) (uncultured bacterium, UniProt S6CP27)
T1 construct: full-length single multidomain protein (domains B, C, A; ten predicted transmembrane helices)
T1 sequence (S6CP27 1-643): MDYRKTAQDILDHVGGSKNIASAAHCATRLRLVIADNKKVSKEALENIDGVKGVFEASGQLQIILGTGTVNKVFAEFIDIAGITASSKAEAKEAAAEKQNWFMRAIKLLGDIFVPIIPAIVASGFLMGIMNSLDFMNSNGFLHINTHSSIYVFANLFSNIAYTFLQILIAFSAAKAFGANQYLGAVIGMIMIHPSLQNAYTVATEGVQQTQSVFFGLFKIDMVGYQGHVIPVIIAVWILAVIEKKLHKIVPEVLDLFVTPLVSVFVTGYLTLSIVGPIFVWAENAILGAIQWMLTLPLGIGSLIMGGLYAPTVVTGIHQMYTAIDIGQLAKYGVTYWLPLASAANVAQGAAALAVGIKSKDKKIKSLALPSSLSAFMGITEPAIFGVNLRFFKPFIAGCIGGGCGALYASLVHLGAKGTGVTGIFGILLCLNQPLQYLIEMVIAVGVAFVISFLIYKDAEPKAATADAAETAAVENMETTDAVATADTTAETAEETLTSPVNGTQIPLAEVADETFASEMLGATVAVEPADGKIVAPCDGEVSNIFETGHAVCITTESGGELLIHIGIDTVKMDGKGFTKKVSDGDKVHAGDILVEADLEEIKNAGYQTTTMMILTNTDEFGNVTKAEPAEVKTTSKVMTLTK


Assays:
[1] = target: T1, Dorea PTS_EIIBCA (I9 PTS_EIIBCA); experiment: binding saturation on washed crude membranes; unbound kestose by HPAEC-PAD
[2] = substrate: OC[C@H]1O[C@@](CO)(OC[C@@]2(O[C@H]3O[C@H](CO)[C@@H](O)[C@H](O)[C@H]3O)O[C@H](CO)[C@@H](O)[C@@H]2O)[C@@H](O)[C@@H]1O; experiment: uptake saturation in intact E. coli cells; residual kestose by HPAEC-PAD; assay type: cell-based, uncultured bacterium; details: I9min_PTS cells (E. coli EPI100, host EI and HPr/FPr complement), TBS pH 7.0, 37°C, transport
Source text: uptake saturation in intact E. coli cells; residual kestose by HPAEC-PAD on Dorea PTS_EIIBCA (I9 PTS_EIIBCA) | The affinity constants of kestose uptake by I9min_PTS cells (Km)

Row | Molecule | Kd [1] [µM] | Km [2] [µM]
1 | OC[C@H]1O[C@@](CO)(OC[C@@]2(O[C@H]3O[C@H](CO)[C@@H](O)[C@H](O)[C@H]3O)O[C@H](CO)[C@@H](O)[C@@H]2O)[C@@H](O)[C@@H]1O [kestose] | 51 ± 12 | –
2 | Dorea PTS_EIIBCA (I9 PTS_EIIBCA) (uncultured bacterium) (protein, full-length single multidomain protein (domains B, C, A; ten predicted transmembrane helices)) MDYRKTAQDILDHVGGSKNIASAAHCATRLRLVIADNKKVSKEALENIDGVKGVFEASGQLQIILGTGTVNKVFAEFIDIAGITASSKAEAKEAAAEKQNWFMRAIKLLGDIFVPIIPAIVASGFLMGIMNSLDFMNSNGFLHINTHSSIYVFANLFSNIAYTFLQILIAFSAAKAFGANQYLGAVIGMIMIHPSLQNAYTVATEGVQQTQSVFFGLFKIDMVGYQGHVIPVIIAVWILAVIEKKLHKIVPEVLDLFVTPLVSVFVTGYLTLSIVGPIFVWAENAILGAIQWMLTLPLGIGSLIMGGLYAPTVVTGIHQMYTAIDIGQLAKYGVTYWLPLASAANVAQGAAALAVGIKSKDKKIKSLALPSSLSAFMGITEPAIFGVNLRFFKPFIAGCIGGGCGALYASLVHLGAKGTGVTGIFGILLCLNQPLQYLIEMVIAVGVAFVISFLIYKDAEPKAATADAAETAAVENMETTDAVATADTTAETAEETLTSPVNGTQIPLAEVADETFASEMLGATVAVEPADGKIVAPCDGEVSNIFETGHAVCITTESGGELLIHIGIDTVKMDGKGFTKKVSDGDKVHAGDILVEADLEEIKNAGYQTTTMMILTNTDEFGNVTKAEPAEVKTTSKVMTLTK | – | 266 ± 165
